From publication PMC10242237 (Scientific Reports, 2023) come the findings set out here.

Series [1] deals with SARS-CoV-2 M^pro (Severe acute respiratory syndrome coronavirus 2, UniProt P0DTD1). Kind of series: biochemical. The note with it: for inhibition at 0.1 µM: read-out: inhibition [%] SARS-CoV-2 Mpro, [I] = 100 nM; for inhibition at 1 µM: read-out: inhibition [%] SARS-CoV-2 Mpro, [I] = 1 µM.
Series [2] concerns the target SARS-CoV-2 PL^pro (Severe acute respiratory syndrome coronavirus 2, UniProt P0DTD1). Put plainly: biochemical. The conditions noted are these: for inhibition at 1 µM: 0.5 h, read-out: inhibition [%] SARS-CoV-2 PLpro; for inhibition [%] SARS-CoV-2 PLpro: [E] = 100 nM, [I] = 1 µM, [S] = 10 µM.
The target of series [3] is SARS-CoV-2 nsp14 N7-MTase (Severe acute respiratory syndrome coronavirus 2, UniProt P0DTD1). Put plainly: Py-FLINT fluorescence assay of nsp14 N7-MTase. In kind it is biochemical. The note with it: for SARS-CoV-2 nsp14 Hill coefficient p: four-parameter dose-response fit, variable Hill slope.
Method: To determine their IC50 values, we used the previously described fluorescence assay Py-FLINT[42],[67]. To this end, the Py-FLINT probe (1 μM) was incubated with SAM cosubstrate (20 μM), nsp14 enzyme (40 nM), and half-log inhibitor dilutions in 50 mM Tris–HCl pH 7.5 buffer at 30 °C. The reaction progress was monitored in 96-well cells by registering the fluorescence intensity signal with a 1-min time interval. Using the initial reaction course, the values of initial rates V were calculated. To calculate IC50 values from the obtained dependences of initial rates versus inhibitor concentration, we fitted a four-parameter dose–response equation, assuming a variable Hill slope p (Table 3, Fig. S2).
The Py-FLINT probe (1 μM) was incubated with SAM cosubstrate (20 μM), nsp14 (40 nM), and an inhibitor (half-log dilutions logCinh < − 2.5; 2 >). […] Initial rates V were calculated by fitting a linear curve to the first 10 points (10 min). To the obtained dependences V(Cinh) the following four-parameter dose–response equation was fitted:1 V/V0=A1+A2-A1/1+Cinh/IC50^p, where A1 and A2 are the bottom and top asymptotes, respectively; Cinh the inhibitor concentration; p is the Hill coefficient, and V/V0 is the ratio of the initial reaction rate with the inhibitor to that without the inhibitor. For curve fitting and IC50 calculations we used GraphPad Prism software.
Series [4] concerns Vero E6 cells. Put plainly: Cytotoxicity assay (XTT) in Vero E6 cells. In kind it is cell-based. The conditions noted are these: Vero E6 cells, three days, XTT. As to the method: Cytotoxicity was evaluated by incubating two-fold serial dilutions of each compound with Vero E6 cells.
A general note: Tetrazolium dyes change colour on reduction, which living cells bring about.

The subject of series [5] is SARS-CoV-2. Kind of series: Cytopathic effect (CPE)-based anti-SARS-CoV-2 assay in Vero E6 cells. The conditions noted are these: read-out: EC50 CPE, three days, XTT. A general note: Cytopathic effects are the visible damage that an infection or toxin causes in cultured cells.
The test system of series [6] is SARS-CoV-2. Kind of series: RNA reduction-based anti-SARS-CoV-2 assay (RT-qPCR) in Vero E6 cells. The conditions noted are these: read-out: EC50 RNA, two days, RT-qPCR of medium.

With `COc1cccc(-n2[se]c3ccccc3c2=O)c1` [Compound 8], the inhibition at 0.1 µM in series [1] came out at 59.9 ± 4.8%. In series [2], the inhibition at 1 µM stood at 52.6 ± 1.4%.
Regarding `O=C(Nc1ccccc1C(F)(F)F)c1ccccc1[Se][Se]c1ccccc1C(=O)Nc1ccccc1C(F)(F)F` [Compound 26], in series [1], the inhibition at 0.1 µM came out at 34.5 ± 4.4% and the inhibition at 1 µM is 78.1 ± 2.4%. In addition, the “inhibition [%] SARS-CoV-2 PLpro” value in series [2] was 61.3 ± 2.2%. In series [3], this compound gave an IC50 of 1820 ± 320 nM. Besides, the 50% cytotoxic concentration (CC50) in series [4] is over 50 µM. Further, the EC50 in series [5] is 37 ± 2.4 µM.
For `Cc1ccc(Cl)cc1-n1[se]c2ccccc2c1=O` [Compound 20], the inhibition at 0.1 µM in series [1] was 69 ± 3.5%. The inhibition at 1 µM in series [2] is 62.6 ± 1.7%.
In the same order, the values of `CC(=O)Nc1ccc(-n2[se]c3ccccc3c2=O)cc1` [Compound 13] are 62 ± 1% and 57.3 ± 1.8%.
`O=c1c2ccccc2[se]n1-c1cc(Cl)ccc1F` [Compound 17, 2-(5-chloro-2-fluorophenyl)-1,2-benzisoselenazol-3(2H)-one]: the inhibition at 0.1 µM in series [1] is 82.3 ± 2.1%. For the same compound, in series [2], the inhibition at 1 µM came to 47.2 ± 1%. For the same compound, in series [3], the “SARS-CoV-2 nsp14 Hill coefficient p” value was 2.15 ± 0.28.
As for `COc1ccc(-n2[se]c3ccccc3c2=O)cc1OC` [Compound 23], the inhibition at 0.1 µM in series [1] worked out at 60.6 ± 0.4%. The inhibition at 1 µM in series [2] came out at 58 ± 1.9%.
Turning to `Cc1ccc(Cl)c(-n2[se]c3ccccc3c2=O)c1` [Compound 19], the inhibition at 0.1 µM in series [1] amounted to 61.8 ± 0.5%. In addition, the “inhibition [%] SARS-CoV-2 PLpro” value in series [2] came out at 57.6 ± 3.0%.
Regarding `Cc1ccccc1-n1[se]c2ccccc2c1=O` [Compound 4], in series [1], the inhibition at 0.1 µM turned out to be 63.4 ± 2.7%. In series [2], the “inhibition [%] SARS-CoV-2 PLpro” value was found to be 55.8 ± 5.2%.
Take `O=c1c2ccccc2[se]n1-c1ccccc1Br` [Compound 3]: the inhibition at 0.1 µM in series [1] worked out at 73.3 ± 4.5%. Moreover, the inhibition at 1 µM in series [2] turned out to be 59.2 ± 4.5%. Further, in series [3], the “SARS-CoV-2 nsp14 Hill coefficient p” value is 3.12 ± 0.47.
In the same order, the values of `O=c1c2ccccc2[se]n1-c1ccc([N+](=O)[O-])cc1` [Compound 10] are 82.9 ± 1.7%, 56.2 ± 4.2% and 1.73 ± 0.35.
Turning to `Cc1cc(NC(=O)c2ccccc2[Se][Se]c2ccccc2C(=O)Nc2ccc(Cl)c(C)c2)ccc1Cl` [Compound 33], the inhibition at 0.1 µM in series [1] is 48.7 ± 5.4%. In series [1], the inhibition at 1 µM came out at 92 ± 0.3%. Also, the “inhibition [%] SARS-CoV-2 PLpro” value in series [2] was 72.1 ± 3.2%. In addition, the EC50 is 1700 ± 80 nM in series [6] and 20 ± 1.4 µM in series [5]. Moreover, half-maximal inhibition in series [3] (IC50) was put at 1060 ± 50 nM. The CC50 in series [4] was over 50 µM.
Regarding `CC(=O)c1ccc(-n2[se]c3ccccc3c2=O)cc1` [Compound 12], the inhibition at 0.1 µM in series [1] was determined as 55.1 ± 2.7%. In series [2], the “inhibition [%] SARS-CoV-2 PLpro” value was 59.0 ± 3.0%.
As for `O=c1c2ccccc2[se]n1-c1ccc(Cl)cc1F` [Compound 15], in series [1], the inhibition at 0.1 µM is 77.1 ± 2.8%. Moreover, the “inhibition [%] SARS-CoV-2 PLpro” value in series [2] is on record as 55.7 ± 3.1%.
Turning to `O=c1c2ccccc2[se]n1-c1ccccc1Cl` [Compound 2], the inhibition at 0.1 µM in series [1] was determined as 66.5 ± 3.4%. In series [2], the inhibition at 1 µM was 56.7 ± 4.1%.
For `O=c1c2ccccc2[se]n1-c1ccccc1F` [Compound 1], in series [1], the inhibition at 0.1 µM came out at 72.3 ± 2.3%. For the same compound, the inhibition at 1 µM in series [2] came to 54.6 ± 2%.
`Cc1cc(-n2[se]c3ccccc3c2=O)ccc1Cl` [Compound 22]: the inhibition at 0.1 µM in series [1] stood at 72.2 ± 0.8%. For the same compound, the inhibition at 1 µM in series [2] amounted to 43.1 ± 2.1%.
Turning to `O=c1c2ccccc2[se]n1-c1ccccc1[N+](=O)[O-]` [Compound 6], the inhibition at 0.1 µM in series [1] was 38.5 ± 2.3%. Moreover, in series [2], the “inhibition [%] SARS-CoV-2 PLpro” value turned out to be 46.6 ± 2.3%.
Consider `O=C(Nc1ccc(C(F)(F)F)cc1)c1ccccc1[Se][Se]c1ccccc1C(=O)Nc1ccc(C(F)(F)F)cc1` [Compound 29], for which, in series [1], the inhibition at 0.1 µM was 14 ± 2.4% and the inhibition at 1 µM was 100%. The “inhibition [%] SARS-CoV-2 PLpro” value in series [2] stood at 61.3 ± 3.4%. For the same compound, the IC50 in series [3] was 4500 ± 1300 nM. In series [4], this compound registered a CC50 of over 50 µM. In addition, the EC50 in series [5] came to 29 ± 3.5 µM.
For `O=c1c2ccccc2[se]n1-c1cc(Cl)ccc1Cl` [Compound 18], the inhibition at 0.1 µM in series [1] stood at 72.3 ± 3.1%. Further, the “inhibition [%] SARS-CoV-2 PLpro” value in series [2] is 47.8 ± 0.9%.
In the case of `O=C(Nc1ccccc1F)c1ccccc1[Se][Se]c1ccccc1C(=O)Nc1ccccc1F` [Compound 25], in series [1], the inhibition at 0.1 µM stood at 33 ± 5.5% and the inhibition at 1 µM was determined as 100%. For the same compound, the “inhibition [%] SARS-CoV-2 PLpro” value in series [2] is given as 82.1 ± 2.7%. In series [6], the concentration giving a half-maximal response (EC50) was 1900 ± 150 nM. For the same compound, the half-inhibitory concentration (IC50) in series [3] came out at 120 ± 10 nM. This compound also yielded a CC50 in series [4] of about 60 µM. Besides, in series [5], the half-maximal effective concentration (EC50) was 3.1 ± 0.36 µM.
Take `O=c1c2ccccc2[se]n1-c1ccc(C(F)(F)F)cc1` [Compound 9]: the inhibition at 0.1 µM in series [1] turned out to be 71 ± 9.3%. The inhibition at 1 µM in series [2] amounted to 48 ± 3.6%.
On to `COc1cccc(NC(=O)c2ccccc2[Se][Se]c2ccccc2C(=O)Nc2cccc(OC)c2)c1` [Compound 28], for which, in series [1], the inhibition at 0.1 µM was 37 ± 4.3% and the inhibition at 1 µM worked out at 100%. The “inhibition [%] SARS-CoV-2 PLpro” value in series [2] is 81.9 ± 0.8%. For the same compound, the 50% effective concentration (EC50) in series [6] was 2700 ± 230 nM. This compound also gave a concentration for half-maximal inhibition (IC50) in series [3] of 580 ± 40 nM. This compound also yielded a CC50 in series [4] of over 50 µM. The concentration giving a half-maximal response (EC50) in series [5] was 7.6 ± 0.71 µM.
With `O=C(Nc1c(F)cccc1Cl)c1ccccc1[Se][Se]c1ccccc1C(=O)Nc1c(F)cccc1Cl` [Compound 34], in series [1], the inhibition at 0.1 µM was found to be 32 ± 2.1% and the inhibition at 1 µM was found to be 43.1 ± 3%. In addition, the “inhibition [%] SARS-CoV-2 PLpro” value in series [2] amounted to 60.2 ± 1.7%. Also, the half-maximal effective concentration (EC50) in series [6] was found to be 3400 ± 200 nM. This compound had a half-maximal inhibitory concentration (IC50) in series [3] of 2100 ± 580 nM. Also, the 50% cytotoxic concentration (CC50) in series [4] was over 50 µM. For the same compound, the EC50 in series [5] was 9.3 ± 0.92 µM.
`O=C(Nc1cccc(F)c1)c1ccccc1[Se][Se]c1ccccc1C(=O)Nc1cccc(F)c1` [Compound 27, bis[2-(3-fluorophenylcarbamoyl)]phenyl diselenide]: the inhibition at 0.1 µM in series [1] amounted to 44 ± 4.1%. The inhibition at 1 µM in series [1] stood at 100%. In addition, in series [2], the “inhibition [%] SARS-CoV-2 PLpro” value turned out to be 90.1 ± 5.4%. Moreover, the results for the concentration for a half-maximal effect (EC50) in series [6] and in series [5] were 1500 ± 150 nM and 0.7 ± 0.13 µM, respectively. This compound had an IC50 in series [3] of 180 ± 40 nM. Moreover, in series [4], the CC50 is over 50 µM.
With `O=c1c2ccccc2[se]n1-c1ccccc1C(F)(F)F` [Compound 5], in series [1], the inhibition at 0.1 µM stood at 62.8 ± 0.7%. The “inhibition [%] SARS-CoV-2 PLpro” value in series [2] turned out to be 44.4 ± 2.5%.
As to `Cc1ccc(Cl)cc1NC(=O)c1ccccc1[Se][Se]c1ccccc1C(=O)Nc1cc(Cl)ccc1C` [Compound 32], in series [1], the inhibition at 0.1 µM is 55.4 ± 3.8% and the inhibition at 1 µM worked out at 100%. In series [2], the “inhibition [%] SARS-CoV-2 PLpro” value is reported as 72.4 ± 1.7%. This compound also showed an IC50 in series [3] of 12100 ± 1100 nM. Besides, in series [4], the CC50 is over 50 µM. Further, the concentration giving a half-maximal response (EC50) in series [5] turned out to be 22 ± 2.5 µM.
On to `O=c1c2ccccc2[se]n1-c1ccc(F)cc1F` [Compound 14], for which the inhibition at 0.1 µM in series [1] was found to be 64.8%. Moreover, the “inhibition [%] SARS-CoV-2 PLpro” value in series [2] is 58.1 ± 3.9%.
With `O=C(Nc1ccc(Cl)cc1F)c1ccccc1[Se][Se]c1ccccc1C(=O)Nc1ccc(Cl)cc1F` [Compound 30], the inhibition at 0.1 µM in series [1] is 27.4%. Moreover, the inhibition at 1 µM in series [1] turned out to be 49.6 ± 2.7%. For the same compound, in series [2], the “inhibition [%] SARS-CoV-2 PLpro” value was 75.1 ± 0.4%. Besides, the EC50 in series [6] was 1900 ± 100 nM; in series [5], 1.1 ± 0.15 µM. In series [3], this compound had a 50% inhibitory concentration (IC50) of 11500 ± 1400 nM. Also, the cytotoxic concentration (CC50) in series [4] is over 50 µM.

What is called inhibition is the change of the read-out against control, counted positive when it falls. As usually defined, the IC50 is the concentration at which inhibition is half-maximal. As a reminder, the CC50 is the concentration that lowers cell viability or growth by half. A word on the EC50: it is the concentration giving half of the maximal effect.
